# Results taken from PubChem BioAssay (NCI).
# Several values for one entry are separate records, joined by “and”; a condition that tells them apart may be missing. Equal entries are not always repeated.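 Following 48 hours of exposure in 96-well plates, responses at five concentrations were used to interpolate endpoints linearly. GI50: concentration for 50% inhibition of growth. TGI is the concentration that stops growth completely.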
# Key:
# Test in all cases: growth of human tumour cells (NCI), 48 h
# A498 renal = tested on: A498 renal
# DU-145 prostate = tested on: DU-145 prostate
# COLO 205 colon = tested on: COLO 205 colon
# NCI/ADR-RES ovarian = tested on: NCI/ADR-RES ovarian
# MALME-3M melanoma = tested on: MALME-3M melanoma
# SW-620 colon = tested on: SW-620 colon
# HOP-62 NSCLC = tested on: HOP-62 NSCLC
# NCI-H522 lung = tested on: NCI-H522 lung
# SR leukemia = tested on: SR leukemia
# NCI-H23 lung = tested on: NCI-H23 lung
SMILES,GI50 (A498 renal) [µM],TGI (A498 renal) [µM],GI50 (DU-145 prostate) [µM],TGI (DU-145 prostate) [µM],GI50 (COLO 205 colon) [µM],TGI (COLO 205 colon) [µM],GI50 (NCI/ADR-RES ovarian) [µM],TGI (NCI/ADR-RES ovarian) [µM],GI50 (MALME-3M melanoma) [µM],TGI (MALME-3M melanoma) [µM],GI50 (SW-620 colon) [µM],TGI (SW-620 colon) [µM],GI50 (HOP-62 NSCLC) [µM],TGI (HOP-62 NSCLC) [µM],GI50 (NCI-H522 lung),TGI (NCI-H522 lung),GI50 (SR leukemia) [µM],TGI (SR leukemia),GI50 (NCI-H23 lung) [µM],TGI (NCI-H23 lung)
CN1CCN(CCCOc2cccc3nc(Nc4ccc(F)c(F)c4)ccc23)CC1,5.65,11.6,4.32,8.67,0.646,1.33,5.16,10.5,1.44,6.05,1.82,10.5,1.25,5.34,1.01 µM,3.69 µM,0.87,4.07 µM,4.67,9.29 µM
CCc1nc2cc(/C=C/C(=O)NO)ccc2c(=O)n1CCc1ccc(OC)cc1,1.17,3.39,2.19,10.3,1.94,5.13,1.35,12.3,1.53,8.28,1.93,13,2.45,7.68,1.43 µM,4.66 µM,1.94,> 100 µM,2.4,7.89 µM
CC1=C(C#N)C(/C=C(\Cl)c2ccc(F)cc2)C(C#N)=C(C)N1,> 100,> 100,> 100,> 100,> 100,> 100,> 100,> 100,> 100,> 100,> 100,> 100,> 100,> 100,> 100 µM,> 100 µM,> 100,> 100 µM,> 100,> 100 µM
OC(COc1ccccc1)CN1CCCCC1 (configuration not stated),,> 100,,> 100,,> 100,,> 100,,> 100,,> 100,,> 100,,> 100 µM,,> 100 µM,,> 100 µM
CC[C@@H](O)C[C@H]1CCC[C@@]2(C[C@@H]3OC(=O)/C=C/[C@@](C)(O)[C@@H](O)[C@H](C)[C@@H](O)[C@H](OC4CCC(N(C)C)C(C)O4)[C@@H](O)[C@](C)(O)CCCCC/C=C/[C@@H]4CC(C)(C)O[C@@]4(O)C[C@H](O2)[C@H]3C)O1 (some centres not stated),,57.4,,24.1,,14.5,,24,,15.5,,53.6,,26.2,,12.3 µM,,9.42 µM,,18.2 µM
COc1ccc(-c2nsc3c2NC(=O)CC3c2cccc(Cl)c2)cc1 (configuration not stated),1.34,8.1,3.3,> 100,0.771,> 42.4,0.604,> 100,6.59,> 100,0.497,> 100,4.04,98.1,0.766 µM,5.99 µM,0.519,> 100 µM,4.62,> 100 µM
COc1cc(Nc2ncnc(Nc3ccc4c(n3)NC(=O)C(C)(C)O4)n2)cc(OC)c1OC,0.031,0.29,2.03,> 100,0.829,> 100,,> 100,8.69,> 100,2.73,> 100,0.555,> 66.5,0.625 µM,11.2 µM,2.24,> 100 µM,2.59,> 100 µM
CCOc1ccc(N=Cc2ccnc3ccccc23)cc1,,> 100,,> 100,,> 100,,> 100,,> 97.7,,> 100,,> 94,,> 94.8 µM,,6.76 µM,,> 98 µM
Cn1cncc1-c1c(F)cncc1NC(=O)c1c(N)nn2cc(F)cnc12,0.526,8.83,0.803,49.3,5.68,> 100,1.45,> 100,5.16,68.5,4.12,> 100,5.21,> 100,3.46 µM,19.8 µM,0.206,2.54 µM,0.093,1.34 µM
Cc1cccc(Nc2cc(Cl)nc(SCC(=O)O)n2)c1C,,> 100,,> 100,,> 100,,> 100,,> 100,,> 100,,> 100,,> 100 µM,,> 100 µM,,> 100 µM
CCOc1ccc(C(C)=O)cc1NC(=O)c1cccc(-c2nnn(CC)n2)c1,0.803,24,1.07,> 100,0.395,1.93,0.511,13.3,11.4,63.9,0.492,> 100,0.39,18.1,0.147 µM,0.971 µM,0.401,> 100 µM,0.646,19 µM
COc1ccc2nc3cccc([N+](=O)[O-])c3c(NCCNCCN(C)C)c2c1,0.201,0.45,0.0374,0.909,0.0277,0.0949,0.884,4.67,0.205,0.538,0.0486,2.27,0.183,0.698,0.0102 µM,0.0184 µM,0.0329,,1.72,5.26 µM
COc1ccc2[nH]c(C(=O)OCc3ccc4cccc(O)c4n3)cc2c1,2.65,5.57,1.53,2.93,1.29,2.91,1.94,5.91,1.52,2.89,1.2,3.15,1.52,3.5,1.39 µM,3.25 µM,0.251,1.25 µM,1.44,3.07 µM
CCc1nn2ncccc2c1-c1ccnc(NC2CC2)n1,9.73,> 25,> 25,> 25,> 25,> 25,> 25,> 25,> 25,> 25,> 25,> 25,> 25,> 25,> 25 µM,> 25 µM,> 25,> 25 µM,> 25,> 25 µM
CN(C)CCCCCNc1c2ccccc2nc2cccc([N+](=O)[O-])c12,,0.00758,,0.00346,0.00591,0.00173,,0.0055,,0.00506,0.00632,0.0126,,0.00716,0.00154 µM and 0.000466 µM,0.0029 µM and 0.00186 µM,0.000559,0.00697 µM and > 0.0278 µM,0.00162,0.00344 µM and 0.00234 µM
Nc1ccc(-c2ccc3ncc4ccc(=O)n(-c5cccc(C(F)(F)F)c5)c4c3c2)cn1,< 0.01,< 0.01,< 0.01,30.8,0.0245,0.683,0.02,13.1,< 0.01,0.0315,< 0.0125,13.3,< 0.01,1.47,< 0.01 µM,2.03 µM,< 0.01,0.56 µM,< 0.013,2.35 µM
CCn1c(=N)sc2nc3ccccc3n2c1=O,,> 100,,> 100,,> 100,,> 100,,> 100,,> 100,,> 100,,> 100 µM,,> 100 µM,,> 100 µM
S=C(CSc1ccccc1)Nc1cccc2ccccc12,,71,,> 100,,32,,> 100,,> 100,,> 100,,> 100,,> 100 µM,,68.8 µM,,> 100 µM
COc1ccc2c(c1)O/C(=C\c1cccc(OCC(=O)Nc3nc(C)c(C)s3)c1)C2=O,7.82,> 68.4,0.189,0.404,22.3,> 100,21.3,> 100,1.8,3.92,2.86,> 26.8,0.542,1.13,1.26 µM,2.95 µM,0.537,1.37 µM,1.19,
NCCOc1ncccc1/C=C1\c2ccccc2-c2ccc([N+](=O)[O-])cc21,0.158,0.578,0.0193,0.224,0.137,0.343,0.154,1.12,0.055,0.275,0.0725,0.834,0.0261,0.133,0.0684 µM,0.438 µM,< 0.01,1.1 µM,0.0479,0.413 µM
Cc1nc(Sc2nc3ccc([N+](=O)[O-])cc3s2)sc1C,1.59,9.23,3.99,15.4,1.93,6.07,1.63,5.45,1.4,3.9,0.482,3.53,3.81,14.2,0.627 µM,2.36 µM,0.367,5.94 µM,1.03,4.44 µM
Cc1c(C)c2c(c(C)c1OCC(=O)O)CC[C@@](C)(CCC[C@@H](C)CCC[C@@H](C)CCCC(C)C)O2,94.9,167,75.7,147,53.4,144,78.7,210,66.5,130,81.9,218,62.2,161,64.1 µM,154 µM,50.4,500 µM,75.7,200 µM
Cn1cc(C2=C(c3ccccc3C(F)(F)F)C(=O)NC2=O)c2ccccc21,3.9,17.5,12.5,> 25,6.42,> 25,9.53,> 25,> 18.5,> 25,10.2,> 25,11.8,> 25,11.6 µM,> 25 µM,6.36,> 22.2 µM,11.9,> 25 µM
O=C(Nc1ccc2c(c1)OCCO2)C(=O)c1c[nH]c2ccccc12,0.535,7.08,1.95,11.8,2.72,> 100,0.375,5.06,10.5,> 100,0.475,> 100,2.9,21.2,0.536 µM,16.3 µM,0.268,> 46.7 µM,1.44,26.7 µM
CC(=O)O[C@H](C[C@H](C(C)C)N(C)C(=O)[C@@H](NC(=O)[C@H]1CCCCN1C)C(C)C)c1cccc(C(=O)N[C@@H](Cc2ccccc2)C[C@H](C)C(=O)O)n1,0.0158,0.0737,0.0263,1.49,0.0279,0.329,2.06,> 10.6,0.0164,> 25,< 0.0222,> 25,0.0648,> 25,0.0116 µM,0.401 µM,0.00429,> 25 µM,0.051,> 25 µM
COc1ccc(-c2nn3ncccc3c2-c2ccnc(Nc3ccc4c(c3)OCCO4)n2)cc1,3.69,22.1,8.19,> 25,13.1,> 25,7.52,> 25,12.5,> 25,14.4,> 25,9.64,> 25,5.56 µM,23 µM,16.1,> 25 µM,9.22,> 25 µM
Cc1noc(C)c1-c1cnc2c(-c3ccc(C(=O)O)cc3)cn([C@@H](C)c3ccccn3)c2c1,0.196,1.87,22.6,> 100,0.413,> 100,2.28,> 100,0.635,> 100,15.6,> 100,0.555,> 100,0.231 µM,> 49.7 µM,0.838,> 100 µM,3.32,> 100 µM
